Drawing on ChEMBL document CHEMBL3779840, “Discovery of 2-((3-Amino-4-methylphenyl)amino)-N-(2-methyl-5-(3-(trifluoromethyl)benzamido)phenyl)-4-(methylamino)pyrimidine-5-carboxamide (CHMFL-ABL-053) as a Potent, Selective, and Orally Available BCR-ABL/SRC/p38 Kinase Inhibitor for Chronic Myeloid Leukemia” (J Med Chem, 2016), this text covers GI50 for 5 compounds.

Series [1] is described as follows: Antiproliferative activity against mouse BA/F3 cells assessed as cell viability after 72 hrs by CellTiter-Glo or CCK-8 assay. The series is classed as cell-based, BaF3. A general note: Cellular ATP, detected with luciferase, serves as a proxy for viable cell number.
The subject of another series is K562. Kind of series: Antiproliferative activity against human K562 cells assessed as cell viability after 72 hrs by CellTiter-Glo or CCK-8 assay. The series is classed as functional. To be noted: K562, 72 h.
The nature of series [2]: Antiproliferative activity against human KU812 cells assessed as cell viability after 72 hrs by CellTiter-Glo or CCK-8 assay. The series is classed as functional. To be noted: KU812, 72 h.
Series [3] in a line: Antiproliferative activity against human U937 cells assessed as cell viability after 72 hrs by CellTiter-Glo or CCK-8 assay. The series is classed as functional. As to conditions: U-937, 72 h.
Series [4] in a line: Antiproliferative activity against human MOLM14 cells assessed as cell viability after 72 hrs by CellTiter-Glo or CCK-8 assay. As to conditions: MOLM-14, 72 h. The series is classed as functional.
In a further series the test system is MV4-11. Briefly: Antiproliferative activity against human MV4-11 cells assessed as cell viability after 72 hrs by CellTiter-Glo or CCK-8 assay. The series is classed as functional. To be noted: MV4-11, 72 h.
A short description of series [5]: Antiproliferative activity against human MEG01 cells assessed as cell viability after 72 hrs by CellTiter-Glo or CCK-8 assay. To be noted: MEG-01, 72 h. The series is classed as functional.
For a further series, the system named is HEL. Kind of series: Antiproliferative activity against human HEL cells assessed as cell viability after 72 hrs by CellTiter-Glo or CCK-8 assay. The series is classed as functional.
A short description of series [6]: Antiproliferative activity against […] CHL cells assessed as cell viability after 72 hrs by CellTiter-Glo or CCK-8 assay. To be noted: chinese hamster. The series is classed as cell-based, Cricetulus griseus.
Series [7] deals with T1, Discoidin domain-containing receptor 2 (Homo sapiens) (UniProt Q16832).
T1 sequence (whole entry): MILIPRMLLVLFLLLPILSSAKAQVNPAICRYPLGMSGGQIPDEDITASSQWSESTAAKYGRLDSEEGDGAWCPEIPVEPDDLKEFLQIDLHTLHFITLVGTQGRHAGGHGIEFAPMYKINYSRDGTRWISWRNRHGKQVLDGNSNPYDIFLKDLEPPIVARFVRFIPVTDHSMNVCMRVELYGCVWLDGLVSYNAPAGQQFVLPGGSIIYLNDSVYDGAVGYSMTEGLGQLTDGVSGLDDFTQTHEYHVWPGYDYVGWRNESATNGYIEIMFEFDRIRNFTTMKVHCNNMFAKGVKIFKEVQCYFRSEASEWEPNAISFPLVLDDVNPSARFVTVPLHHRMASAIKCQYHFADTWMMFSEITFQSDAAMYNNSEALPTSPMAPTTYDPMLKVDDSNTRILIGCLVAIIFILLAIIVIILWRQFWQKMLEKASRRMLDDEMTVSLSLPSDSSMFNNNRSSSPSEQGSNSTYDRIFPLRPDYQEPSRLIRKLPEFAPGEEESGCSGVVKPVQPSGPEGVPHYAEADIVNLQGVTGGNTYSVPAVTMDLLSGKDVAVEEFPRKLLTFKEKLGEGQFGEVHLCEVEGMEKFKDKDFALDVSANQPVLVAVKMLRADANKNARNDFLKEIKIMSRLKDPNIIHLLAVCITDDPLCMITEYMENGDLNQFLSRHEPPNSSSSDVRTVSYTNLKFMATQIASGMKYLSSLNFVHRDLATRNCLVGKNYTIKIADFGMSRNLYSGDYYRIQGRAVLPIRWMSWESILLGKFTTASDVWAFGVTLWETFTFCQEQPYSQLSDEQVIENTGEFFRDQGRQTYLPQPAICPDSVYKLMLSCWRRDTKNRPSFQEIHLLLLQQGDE
To be noted: BaF3.
Description: Inhibition of TEL-DDR2 (unknown origin) expressed in mouse BA/F3 cells assessed as growth inhibition after 72 hrs by CellTiter-Glo or CCK-8 assay

The target of series [8] is Tyrosine-protein kinase Blk (Homo sapiens) (UniProt P51451). To be noted: BaF3.
Description: Inhibition of TEL-BLK (unknown origin) expressed in mouse BA/F3 cells assessed as growth inhibition after 72 hrs by CellTiter-Glo or CCK-8 assay
Series [9] has as its target Tyrosine-protein kinase HCK (Homo sapiens) (UniProt P08631). As to conditions: BaF3.
Description: Inhibition of TEL-HCK (unknown origin) expressed in mouse BA/F3 cells assessed as growth inhibition after 72 hrs by CellTiter-Glo or CCK-8 assay
Series [10] relates to BaF3. To be noted: Homo sapiens.
Description: Inhibition of BCR/ABL p210-E255K mutant (unknown origin) expressed in mouse BA/F3 cells assessed as growth inhibition after 72 hrs by CellTiter-Glo or CCK-8 assay
In series [11] the test system is BaF3. To be noted: Homo sapiens. The source holds these as a separate data set.
Description: Inhibition of BCR/ABL p210-F317I mutant (unknown origin) expressed in mouse BA/F3 cells assessed as growth inhibition after 72 hrs by CellTiter-Glo or CCK-8 assay
The test system of series [12] is BaF3. To be noted: Homo sapiens. The source holds these as a separate data set.
Description: Inhibition of BCR/ABL p210-T315I mutant (unknown origin) expressed in mouse BA/F3 cells assessed as growth inhibition after 72 hrs by CellTiter-Glo or CCK-8 assay
In series [13] the target is Epithelial discoidin domain-containing receptor 1 (Homo sapiens, UniProt Q08345). As to conditions: BaF3.
Description: Inhibition of TEL-DDR1 (unknown origin) expressed in mouse BA/F3 cells assessed as growth inhibition after 72 hrs by CellTiter-Glo or CCK-8 assay
The target in series [14] is Proto-oncogene tyrosine-protein kinase Src (Homo sapiens, UniProt P12931). To be noted: BaF3.
Description: Inhibition of TEL-SRC (unknown origin) expressed in mouse BA/F3 cells assessed as growth inhibition after 72 hrs by CellTiter-Glo or CCK-8 assay
The target of series [15] is Tyrosine-protein kinase Lck (Homo sapiens) (UniProt P06239). As to conditions: BaF3.
Description: Inhibition of TEL-LCK (unknown origin) expressed in mouse BA/F3 cells assessed as growth inhibition after 72 hrs by CellTiter-Glo or CCK-8 assay
Series [16] addresses Transcription factor ETV6/Tyrosine-protein kinase ABL1 (Homo sapiens) (UniProt P00519+P41212). As to conditions: BaF3.
Description: Inhibition of Tel-ABL (unknown origin) expressed in mouse BA/F3 cells assessed as cell growth inhibition after 72 hrs by CellTiter-Glo or CCK-8 assay
Series [17] concerns the target Bcr/Abl fusion protein (Homo sapiens) (UniProt P00519+P11274). To be noted: BaF3.
Description: Inhibition of BCR/ABL p210 (unknown origin) expressed in mouse BA/F3 cells assessed as growth inhibition after 72 hrs by CellTiter-Glo or CCK-8 assay

The structures appear in SMILES notation.

Sequence of Tyrosine-protein kinase HCK (Homo sapiens) (P08631 2-526 limits assumed): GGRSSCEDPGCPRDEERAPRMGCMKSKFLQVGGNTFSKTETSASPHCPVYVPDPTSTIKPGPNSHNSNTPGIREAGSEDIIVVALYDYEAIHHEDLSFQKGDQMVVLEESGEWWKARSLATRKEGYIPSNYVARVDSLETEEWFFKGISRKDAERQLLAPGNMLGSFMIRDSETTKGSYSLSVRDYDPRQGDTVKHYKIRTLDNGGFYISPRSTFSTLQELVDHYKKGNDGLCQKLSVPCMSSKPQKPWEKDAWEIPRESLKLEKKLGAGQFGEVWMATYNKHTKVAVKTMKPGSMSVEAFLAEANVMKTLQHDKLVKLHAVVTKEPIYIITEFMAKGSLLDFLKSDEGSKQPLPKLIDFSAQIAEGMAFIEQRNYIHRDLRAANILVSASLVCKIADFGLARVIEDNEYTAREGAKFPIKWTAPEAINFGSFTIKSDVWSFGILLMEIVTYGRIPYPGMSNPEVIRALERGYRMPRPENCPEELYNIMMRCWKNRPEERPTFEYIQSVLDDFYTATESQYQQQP
Sequence of Tyrosine-protein kinase Blk (Homo sapiens) (P51451 2-505 limits assumed): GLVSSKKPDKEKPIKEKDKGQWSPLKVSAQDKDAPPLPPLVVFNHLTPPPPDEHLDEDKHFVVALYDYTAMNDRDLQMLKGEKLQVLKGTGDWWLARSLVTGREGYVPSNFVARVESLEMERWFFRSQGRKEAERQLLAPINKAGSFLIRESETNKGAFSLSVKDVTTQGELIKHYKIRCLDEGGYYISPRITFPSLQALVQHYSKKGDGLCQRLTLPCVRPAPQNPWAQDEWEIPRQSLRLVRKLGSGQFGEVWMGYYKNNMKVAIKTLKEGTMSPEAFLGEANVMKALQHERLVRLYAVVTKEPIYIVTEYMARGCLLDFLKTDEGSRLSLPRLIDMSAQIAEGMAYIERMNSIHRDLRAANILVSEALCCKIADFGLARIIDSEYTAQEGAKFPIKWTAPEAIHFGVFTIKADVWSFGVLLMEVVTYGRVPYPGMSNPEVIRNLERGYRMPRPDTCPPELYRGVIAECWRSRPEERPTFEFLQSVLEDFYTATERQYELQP
Sequence of Transcription factor ETV6/Tyrosine-protein kinase ABL1 (Homo sapiens) (P00519 whole entry, looked up, the tested form may be a part): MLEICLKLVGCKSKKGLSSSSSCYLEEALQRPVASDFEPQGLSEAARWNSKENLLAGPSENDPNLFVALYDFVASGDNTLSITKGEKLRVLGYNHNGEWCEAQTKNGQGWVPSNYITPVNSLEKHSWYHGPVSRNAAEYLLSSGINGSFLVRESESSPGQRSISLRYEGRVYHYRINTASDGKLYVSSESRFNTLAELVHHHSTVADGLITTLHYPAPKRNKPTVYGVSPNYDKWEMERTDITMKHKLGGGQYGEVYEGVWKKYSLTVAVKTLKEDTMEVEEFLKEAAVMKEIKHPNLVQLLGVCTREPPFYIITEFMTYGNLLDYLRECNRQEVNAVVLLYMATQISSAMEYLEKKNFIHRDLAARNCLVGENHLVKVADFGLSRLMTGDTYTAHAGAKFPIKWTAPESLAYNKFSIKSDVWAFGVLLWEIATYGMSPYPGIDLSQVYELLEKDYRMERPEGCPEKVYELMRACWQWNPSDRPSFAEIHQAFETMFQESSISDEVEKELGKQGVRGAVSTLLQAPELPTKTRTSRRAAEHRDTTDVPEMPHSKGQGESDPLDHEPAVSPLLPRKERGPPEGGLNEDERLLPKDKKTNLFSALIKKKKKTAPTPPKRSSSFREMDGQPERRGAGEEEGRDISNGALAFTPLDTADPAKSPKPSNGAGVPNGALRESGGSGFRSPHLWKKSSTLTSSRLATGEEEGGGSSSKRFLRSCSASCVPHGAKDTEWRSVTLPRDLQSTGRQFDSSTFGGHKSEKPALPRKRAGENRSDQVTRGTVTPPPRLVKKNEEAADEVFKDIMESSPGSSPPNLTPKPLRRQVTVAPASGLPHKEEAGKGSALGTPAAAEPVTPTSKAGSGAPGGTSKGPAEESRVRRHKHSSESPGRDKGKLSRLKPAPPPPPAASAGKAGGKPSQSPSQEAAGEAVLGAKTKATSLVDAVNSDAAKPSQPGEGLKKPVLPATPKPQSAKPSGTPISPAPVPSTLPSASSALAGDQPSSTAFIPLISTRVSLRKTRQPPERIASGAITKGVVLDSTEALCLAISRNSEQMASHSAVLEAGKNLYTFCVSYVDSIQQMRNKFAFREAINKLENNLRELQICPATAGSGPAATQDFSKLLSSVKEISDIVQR
Sequence of Transcription factor ETV6/Tyrosine-protein kinase ABL1 (Homo sapiens) (P41212 whole entry, looked up, the tested form may be a part): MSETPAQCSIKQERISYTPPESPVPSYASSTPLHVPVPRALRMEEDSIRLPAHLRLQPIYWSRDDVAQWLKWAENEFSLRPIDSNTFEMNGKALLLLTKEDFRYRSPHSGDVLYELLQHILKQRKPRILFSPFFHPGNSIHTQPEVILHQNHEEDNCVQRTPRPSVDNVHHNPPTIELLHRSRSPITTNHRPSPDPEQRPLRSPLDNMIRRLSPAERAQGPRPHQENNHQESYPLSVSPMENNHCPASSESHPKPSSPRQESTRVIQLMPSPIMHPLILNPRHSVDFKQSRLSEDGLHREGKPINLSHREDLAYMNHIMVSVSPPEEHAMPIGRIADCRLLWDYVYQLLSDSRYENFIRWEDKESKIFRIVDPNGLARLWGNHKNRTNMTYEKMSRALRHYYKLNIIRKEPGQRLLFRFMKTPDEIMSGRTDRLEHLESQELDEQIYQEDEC
Sequence of Bcr/Abl fusion protein (Homo sapiens) (P00519 whole entry, looked up, the tested form may be a part): as the sequence (P00519 whole entry, looked up, the tested form may be a part) above
Sequence of Bcr/Abl fusion protein (Homo sapiens) (P11274 whole entry, looked up, the tested form may be a part): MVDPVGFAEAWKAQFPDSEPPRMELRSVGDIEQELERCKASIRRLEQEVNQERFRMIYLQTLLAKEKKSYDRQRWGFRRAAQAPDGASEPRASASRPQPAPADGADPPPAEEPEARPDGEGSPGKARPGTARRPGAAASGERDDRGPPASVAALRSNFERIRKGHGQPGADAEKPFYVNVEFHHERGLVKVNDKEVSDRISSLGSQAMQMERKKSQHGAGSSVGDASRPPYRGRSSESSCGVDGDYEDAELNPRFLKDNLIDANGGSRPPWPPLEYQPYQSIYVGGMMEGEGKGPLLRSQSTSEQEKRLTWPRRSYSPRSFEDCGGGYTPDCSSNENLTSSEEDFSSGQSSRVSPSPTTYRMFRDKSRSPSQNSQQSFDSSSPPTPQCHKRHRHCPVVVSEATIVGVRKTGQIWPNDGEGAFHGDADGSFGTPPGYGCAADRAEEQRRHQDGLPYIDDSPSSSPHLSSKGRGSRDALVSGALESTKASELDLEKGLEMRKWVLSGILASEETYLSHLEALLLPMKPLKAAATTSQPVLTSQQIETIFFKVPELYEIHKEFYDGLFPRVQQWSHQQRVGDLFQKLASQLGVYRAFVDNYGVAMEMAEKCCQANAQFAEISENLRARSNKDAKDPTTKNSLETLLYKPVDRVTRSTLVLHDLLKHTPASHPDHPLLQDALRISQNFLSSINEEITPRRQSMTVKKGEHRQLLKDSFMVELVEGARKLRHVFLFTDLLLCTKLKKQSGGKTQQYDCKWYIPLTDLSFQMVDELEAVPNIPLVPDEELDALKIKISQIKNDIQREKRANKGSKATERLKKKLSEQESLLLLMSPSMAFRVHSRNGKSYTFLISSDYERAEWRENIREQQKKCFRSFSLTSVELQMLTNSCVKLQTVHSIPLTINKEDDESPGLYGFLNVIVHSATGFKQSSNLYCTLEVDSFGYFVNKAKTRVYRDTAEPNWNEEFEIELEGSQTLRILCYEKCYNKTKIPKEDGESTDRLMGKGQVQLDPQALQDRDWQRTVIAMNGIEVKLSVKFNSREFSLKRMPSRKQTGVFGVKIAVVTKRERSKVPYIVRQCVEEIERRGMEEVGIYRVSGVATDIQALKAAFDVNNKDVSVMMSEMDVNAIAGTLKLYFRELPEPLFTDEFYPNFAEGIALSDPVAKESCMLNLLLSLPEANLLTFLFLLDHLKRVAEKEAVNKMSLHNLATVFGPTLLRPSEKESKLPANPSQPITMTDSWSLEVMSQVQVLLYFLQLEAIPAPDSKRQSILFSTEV
Sequence of Tyrosine-protein kinase Lck (Homo sapiens) (P06239 2-509 limits assumed): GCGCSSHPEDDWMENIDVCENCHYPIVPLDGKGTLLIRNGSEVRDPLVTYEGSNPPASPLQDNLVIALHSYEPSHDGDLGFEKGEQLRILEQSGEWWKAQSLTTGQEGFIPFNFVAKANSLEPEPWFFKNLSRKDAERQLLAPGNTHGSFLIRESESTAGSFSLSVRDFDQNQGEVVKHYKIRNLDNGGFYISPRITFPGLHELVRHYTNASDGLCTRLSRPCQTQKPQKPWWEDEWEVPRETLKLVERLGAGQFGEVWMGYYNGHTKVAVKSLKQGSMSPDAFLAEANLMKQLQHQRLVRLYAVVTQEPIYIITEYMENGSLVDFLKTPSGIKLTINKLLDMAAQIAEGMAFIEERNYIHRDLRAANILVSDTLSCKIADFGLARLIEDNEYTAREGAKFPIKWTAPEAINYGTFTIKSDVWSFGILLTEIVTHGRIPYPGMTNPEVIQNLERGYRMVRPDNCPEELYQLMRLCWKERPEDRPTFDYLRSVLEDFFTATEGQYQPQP
Sequence of Proto-oncogene tyrosine-protein kinase Src (P12931 2-536 limits assumed): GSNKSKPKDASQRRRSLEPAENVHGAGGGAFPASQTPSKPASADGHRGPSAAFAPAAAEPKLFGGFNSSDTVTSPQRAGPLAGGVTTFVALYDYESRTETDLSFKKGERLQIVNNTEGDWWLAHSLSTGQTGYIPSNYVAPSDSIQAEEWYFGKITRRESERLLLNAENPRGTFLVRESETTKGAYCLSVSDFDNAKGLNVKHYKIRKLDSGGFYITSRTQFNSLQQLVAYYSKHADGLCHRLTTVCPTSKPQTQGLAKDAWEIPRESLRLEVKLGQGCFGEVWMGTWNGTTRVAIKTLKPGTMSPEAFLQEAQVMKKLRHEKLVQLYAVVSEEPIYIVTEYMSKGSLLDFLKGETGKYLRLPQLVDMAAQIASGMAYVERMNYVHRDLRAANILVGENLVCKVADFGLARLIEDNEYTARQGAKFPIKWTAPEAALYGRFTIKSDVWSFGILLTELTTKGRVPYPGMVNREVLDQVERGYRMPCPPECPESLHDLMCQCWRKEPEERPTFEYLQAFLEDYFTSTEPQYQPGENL

Take `Cc1ccc(NC(=O)c2ccc(CN3CCN(C)CC3)cc2)cc1Nc1nccc(-c2cccnc2)n1` [IMATINIB]: the 50% growth inhibitory concentration (GI50) (usually the concentration at which growth is held to half of that of the control) at 72 h was 6.7 µM in [1] and above 10 µM in [6]. Further, the 50% growth inhibitory concentration (GI50) with K562 is 0.14 µM; in [2], 0.16 µM; in series [3], above 10 µM; in series [4] it was above 10 µM; with MV4-11, above 10 µM; in series [5], 0.24 µM. In addition, the GI50 with HEL was 5.3 µM; in series [7], 7.7 µM; in series [8], 4.1 µM; in series [9], 9.7 µM; in the series on BaF3 [10] it was 1.93 µM; in the series on BaF3 [11] it was 0.855 µM. For the same compound, in the series with BaF3 [12], the GI50 is above 10 µM.
Regarding `Cc1nc(Nc2ncc(C(=O)Nc3c(C)cccc3Cl)s2)cc(N2CCN(CCO)CC2)n1` [DASATINIB], the concentration for 50% growth inhibition (GI50) at 72 h in [1] is above 10 µM; in series [6], 0.27 µM. In addition, the GI50 with K562 is below 0.0003 µM; in [2] it was below 0.0003 µM; in series [3] it was above 10 µM; in [4], 2.3 µM; in the series with MV4-11 it was 3.6 µM; in [5], below 0.0003 µM. In addition, the GI50 with HEL turned out to be 5.3 µM; in [13] it was 3 µM; in [7], 3 µM; in series [8], 0.005 µM; in [9], 0.039 µM; in the series with BaF3 [10], 0.017 µM. Besides, the GI50 in the series on BaF3 [11] came to 0.01 µM; in the series with BaF3 [12] it was 9.94 µM.
In the case of `Cc1cn(-c2cc(NC(=O)c3ccc(C)c(Nc4nccc(-c5cccnc5)n4)c3)cc(C(F)(F)F)c2)cn1` [NILOTINIB], the GI50 at 72 h in [1] is 2.1 µM; in [6], 4.2 µM. In addition, the GI50 with K562 was 0.002 µM; in [2], 0.001 µM; in [3], above 10 µM; in series [4], above 10 µM; in the series with MV4-11, above 10 µM; in [5] it was 0.016 µM. Besides, the GI50 in the series with HEL amounted to 3.9 µM; in series [14] it was 0.47 µM; in series [7] it was 1.4 µM; in [15], 0.87 µM; in series [8] it was 1.3 µM; in series [9] it was 4.1 µM. Besides, the concentration for 50% growth inhibition (GI50) is 0.021 µM in the series with BaF3 [10], 0.0546 µM in the series with BaF3 [11] and above 10 µM in the series with BaF3 [12].
Turning to `CNc1nc(Nc2ccc(C)c([N+](=O)[O-])c2)ncc1C(=O)Nc1cc(NC(=O)c2cccc(OC)c2)ccc1C`, the GI50 at 72 h in series [1] was 6.31 µM. Further, the GI50 in the series on K562 stood at 0.48 µM; in [16], 0.983 µM; in [17], 1.1 µM.
On the same counts, the results for `CNc1nc(Nc2ccc(C)c([N+](=O)[O-])c2)ncc1C(=O)Nc1cc(NC(=O)c2cc(OC)c(OC)c(OC)c2)ccc1C` are above 10 µM, 0.43 µM, 0.931 µM and 1.5 µM.
